# Reference: patent publication EP4745145A1, “SALT OF THIAZOLOPYRAZINE COMPOUND OR CRYSTAL THEREOF AND USE THEREOF” (Simcere Zaiming Pharmaceutical Co., Ltd., priority 2023, dated 2025)
# Target: T1, POLQ (Homo sapiens, UniProt O75417)
# T1 construct: the N-terminal active peptide segment of POLQ with ATPase activity (M1-N899) is co-incubated with the compound; purchased Pharmaron
# Experiment: POLQ enzyme activity inhibition experiment (ATPase, NADH-coupled)
# Type: biochemical
# Experimental: Brief introduction to experimental principle: After the N-terminal active peptide segment of POLQ with ATPase activity (M1-N899) is co-incubated with the compound, this peptide segment reacts with substrate dT50 under the action of ATP to generate ADP. The generated ADP then participates in the subsequent NADH oxidation-coupled enzymatic reaction, catalyzing the conversion of NADH to NAD^+. The reduction in the OD value of NADH at 340 nm was measured using the Envision microplate reader from Perkin Elmer to reflect enzyme activity.
# Experimental methods: The POLQ enzyme was diluted to 100 nM with a reaction buffer (20 mM Tris HCl (pH 7.80), 80 mM KCl, 10 mM MgCl2, 1 mM DTT, 0.01% w/v bovine serum albumin, 0.01% v/v Tween-20, 5% v/v glycerol). The test compound was diluted to different concentrations with dimethyl sulfoxide (DMSO) using the Echo 650 pipetting system and transferred to a 384-well plate, 20 µL/well of 100 nM POLQ was added, and the mixture was incubated at room temperature for 15 min. […] After the 384-well plate was reacted at room temperature for 20 min, the OD value at 340 nm was read using an Envision microplate reader.
# Inhibition rates were calculated and fitted using XLfit software to give the IC50 of the compound. […]
# T1 sequence (O75417 1-899): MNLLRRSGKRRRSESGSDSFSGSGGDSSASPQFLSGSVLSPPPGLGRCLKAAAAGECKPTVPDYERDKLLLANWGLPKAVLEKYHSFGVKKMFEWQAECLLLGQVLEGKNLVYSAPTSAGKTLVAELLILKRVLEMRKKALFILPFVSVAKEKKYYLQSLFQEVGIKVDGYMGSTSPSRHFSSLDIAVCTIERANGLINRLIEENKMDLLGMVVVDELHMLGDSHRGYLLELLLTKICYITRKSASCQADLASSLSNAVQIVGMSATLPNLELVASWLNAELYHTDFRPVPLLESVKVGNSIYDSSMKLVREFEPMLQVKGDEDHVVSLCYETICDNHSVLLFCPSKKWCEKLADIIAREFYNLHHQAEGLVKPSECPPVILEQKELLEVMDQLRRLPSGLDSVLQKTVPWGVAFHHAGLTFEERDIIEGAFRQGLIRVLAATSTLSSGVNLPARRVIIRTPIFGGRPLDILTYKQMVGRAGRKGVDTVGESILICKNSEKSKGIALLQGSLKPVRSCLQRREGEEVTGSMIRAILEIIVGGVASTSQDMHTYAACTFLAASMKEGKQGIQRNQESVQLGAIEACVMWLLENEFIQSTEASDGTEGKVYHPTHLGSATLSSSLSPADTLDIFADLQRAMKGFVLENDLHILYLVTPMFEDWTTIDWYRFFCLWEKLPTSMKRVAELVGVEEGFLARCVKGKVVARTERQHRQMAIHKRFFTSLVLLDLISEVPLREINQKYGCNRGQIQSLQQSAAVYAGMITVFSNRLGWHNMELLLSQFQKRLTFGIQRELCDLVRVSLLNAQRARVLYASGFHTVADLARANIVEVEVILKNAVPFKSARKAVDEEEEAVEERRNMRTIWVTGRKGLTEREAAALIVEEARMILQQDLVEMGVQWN
compound,measurement,value
"COc1ccc(Cl)cc1-c1cc(C)ncc1C(=O)Nc1nc2ncc(-c3ccc(C#N)cc3)nc2s1 [Compound of formula I, 4-(5-chloro-2-methoxyphenyl)-N-[6-(4-cyanophenyl)thiazolo[4,5-b]pyrazin-2-yl]-6-methylnicotinamide]",IC50,< 100 nM
